Measured values published in US5776939A, “Drug resistance and multidrug resistance modulators” (Eli Lilly and Company, priority 1997, dated 1998).

Columns and labels:
p-glycoprotein = p-glycoprotein (Homo sapiens, UniProt P08183); conditions: for EC50: cem/vlb100 cells, 72 h; for Rev100 (lowest concentration of modifier which can achieve 100% reversal activity): human, 4320 min
Experimental: When in vitro testing for multidrug resistance modulation with cancer chemotherapeutic drugs is conducted compounds are evaluated for their ability to show multidrug resistance modulation when coadministered with an oncolytic.
The cells can be maintained in SMEM medium supplemented with 10% FBS and 2 mM L-glutamine in a humidified incubator with 95% air and 5% C02. Cell number can be determined using a Coulter Counter model ZM. Cells can be subcultured every 3-4 days.
Cell viability can be determined using a modified MTT dye reduction method (Denziot, F., Lang, R., "Rapid colorimetric assay for cell growth and survival modifications to the tetrazolium procedure giving improved sensitivity and reliability", J. Immunological Methods, 89, 271-277, (1986)). A brief description of this method is as follows: cells are harvested during the logarithmic growth phase, and seeded in 96-well serocluster plates at 7.5×10^3 cells/well and cultured for 72 hours in the presence of serially diluted oncolytics (VLB, DOX, VP-16 and Taxol®)±modulators. A single well assay is conducted using a fixed concentration of VLB (4 ng/ml) and modulator (5μM). The cytotoxicity of the modulator alone, at the same concentration is also determined. Modulators are prepared as 2 mM stocks in DMSO and added to the wells to give final concentrations ranging from 5 pM to 0.5 WM. After 72 hours, 20 µl of freshly prepared MTT (5 mg/ml in Dulbecco's phosphate buffered saline pH 7.5) is added to each well and placed for 4 hours in a 37° C. incubator. Cells are pelleted at 1800 R.P.M. for 10 minutes in a Sorvall RT6000B centrifuge. After centrifugation, 70 μl of medium is carefully removed from each well, and 100 µl of 2- propanol/0.04 N HC1 is added to dissolve the blue formazan stained cells. Cells are resuspended 5-10 times with a multipipettor or until no particulate matter was visible. Plates are immediately read on a Yitertek MCC/340 microplate reader (Flow Laboratories (McLean, VA) with a wavelength of 570 nm and a reference wavelength of 630 nm). Controls are measured in quadruplicate and modulators in duplicate.
IC50 's are calculated from semilog dose response curves in the presence and absence of modulators for both the parent and resistant cell lines. The fold shift is calculated as the IC50 for cells treated with oncolytic alone divided by the IC50 for cells treated with oncolytic+modulator.

multidrug resistance = conditions: in vivo; cited from earlier work
[1] = in vivo; cited from earlier work
drug-resistant malaria = conditions: in vitro; cited from earlier work

Sequence of p-glycoprotein (P08183 whole entry): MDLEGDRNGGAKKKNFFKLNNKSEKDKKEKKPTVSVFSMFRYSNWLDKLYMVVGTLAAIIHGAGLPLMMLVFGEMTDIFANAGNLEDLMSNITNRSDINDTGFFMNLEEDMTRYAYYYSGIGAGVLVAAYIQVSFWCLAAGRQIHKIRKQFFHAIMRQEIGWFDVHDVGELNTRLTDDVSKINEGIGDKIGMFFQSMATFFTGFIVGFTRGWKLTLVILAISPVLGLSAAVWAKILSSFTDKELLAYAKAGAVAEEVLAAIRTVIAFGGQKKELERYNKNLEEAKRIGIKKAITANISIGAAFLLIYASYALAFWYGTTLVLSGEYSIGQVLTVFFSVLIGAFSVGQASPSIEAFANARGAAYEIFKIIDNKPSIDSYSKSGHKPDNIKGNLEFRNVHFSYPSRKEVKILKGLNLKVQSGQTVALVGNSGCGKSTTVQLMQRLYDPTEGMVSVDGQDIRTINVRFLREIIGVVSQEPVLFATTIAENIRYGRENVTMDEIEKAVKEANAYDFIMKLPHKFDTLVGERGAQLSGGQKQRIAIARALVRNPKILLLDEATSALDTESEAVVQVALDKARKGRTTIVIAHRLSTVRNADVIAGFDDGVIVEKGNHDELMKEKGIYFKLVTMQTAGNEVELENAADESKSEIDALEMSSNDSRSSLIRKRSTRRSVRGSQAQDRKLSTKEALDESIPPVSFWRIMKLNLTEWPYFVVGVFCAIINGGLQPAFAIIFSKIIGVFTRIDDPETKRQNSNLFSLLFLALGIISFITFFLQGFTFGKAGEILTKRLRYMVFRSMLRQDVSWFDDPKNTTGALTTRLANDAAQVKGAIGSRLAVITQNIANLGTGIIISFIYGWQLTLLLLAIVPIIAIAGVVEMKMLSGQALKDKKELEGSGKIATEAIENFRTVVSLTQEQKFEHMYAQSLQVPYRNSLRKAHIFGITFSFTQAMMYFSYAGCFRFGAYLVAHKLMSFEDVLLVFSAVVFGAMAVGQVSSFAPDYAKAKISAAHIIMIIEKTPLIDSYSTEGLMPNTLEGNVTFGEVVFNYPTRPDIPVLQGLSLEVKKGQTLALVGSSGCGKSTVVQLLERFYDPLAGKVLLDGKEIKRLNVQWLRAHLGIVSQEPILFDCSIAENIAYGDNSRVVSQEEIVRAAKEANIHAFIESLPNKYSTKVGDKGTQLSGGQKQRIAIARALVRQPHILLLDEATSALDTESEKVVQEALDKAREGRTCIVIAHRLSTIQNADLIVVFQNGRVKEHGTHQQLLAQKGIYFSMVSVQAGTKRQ

SMILES | MDR Reversal Activity (p-glycoprotein) | EC50 (p-glycoprotein) | Rev100 (lowest concentration of modifier which can achieve 100% reversal activity) (p-glycoprotein) | dose required to be effective as a multidrug resistance modulator (multidrug resistance) | oral bioavailability [1] | effect on drug-resistant malaria (drug-resistant malaria)
O[C@@H](CSc1cccc2ncccc12)CN1CCN([C@@H]2c3ccccc3[C@@H]3[C@H](c4ccccc42)C3(F)F)CC1 [Example 2b, anti-5-{l-(4-(10,11-difluorocyclopropyldi-benzosuber-5-yl)piperazin-1-yl)-2(R)-hydroxyprop-3-ylthio}quinoline·3HC1] | potent | 250 nM | 0.50 µM | – | – | –
OC(CCc1cccc2ncccc12)CN1CCN([C@@H]2c3ccccc3[C@@H]3[C@H](c4ccccc42)C3(F)F)CC1 (stereo partly drawn) [Example 1e, anti-5-{1-(4-(10,11-difluorocyclopropyldibenzosuber-5-yl)piperazin-1-yl)-2(R,S)-hydroxybut-4-yl}quinoline·3HC1] | potent | 1000 nM | > 1.0 µM | – | – | –
O=C(C(c1ccccc1)c1ccccc1)N1CCN(CC(O)COc2cccc3ncccc23)CC1 (stereo not drawn) [MS-209] | – | – | – | higher doses | better | –
COc1ccc(CCN(C)CCCC(C#N)(c2ccc(OC)c(OC)c2)C(C)C)cc1OC (stereo not drawn) [verapamil] | – | – | – | – | – | effective
